Data reported in patent US8431615B2, “Dose forms” (priority 2004, dated 2013).

What was measured:
[1] = Predicted human liver exposures versus replicon assay IC50/IC90; settings: dose range studied
Text: Liver exposures to VX-950 were predicted based on the integrated preclinical and clinical data.

HCV genotype 1 = test: Multiple-dose 14-day study, plasma HCV RNA (Roche COBAS TaqMan HCV/HPS assay); type: in vivo, human
Text: Detection of HCV RNA was done using the Roche COBAS TaqMan HCV/HPS assay, available from Roche molecular Diagnostics. Other assays are available.

[2] = test system: AST (aspartate aminotransferase); test: Multiple-dose 14-day study, AST; type: in vivo, human; settings: upon administration of VX-950
HCV NS3/4A protease = HCV NS3/4A protease (Hepatitis C virus genotype 1a, UniProt P27958); test: In vitro cleavage of TRIF by HCV NS3/4A protease; type: biochemical; settings: 10 μM VX-950, tNS3 protease 0-4 μM
Experimental: The 35S methionine labeled coupled in vitro transcription/translation product of TRIF protein (as a substrate) was incubated with increasing concentration of tNS3 protease enzyme ranging from 0-4 μM either in the presence (Circles) or absence (Squares) of 10 μM VX-950, followed by SDS-PAGE and exposure to phosphorimager.

[3] = in vivo
WT-HCV protease-SEAP = settings: SCID mice expressing WT-HCV protease-SEAP; cited from earlier work
[4] = test system: ALT (alanine aminotransferase); test: Multiple-dose 14-day study, serum ALT; settings: 450 mg q8h, day 12; 5 out of 10 samples missing
neopterin = test: Multiple-dose 14-day study, serum neopterin (competitive ELISA); settings: 750 mg q8h, day 14; baseline 10.48±0.84 nmol/l; ULN 7.7 nmol/l
IFN-β promoter activity = test: IFN-β promoter luciferase activity in Sendai virus stimulated Huh7 cells expressing HCV protease; settings: 10 μM VX-950, Sendai virus infected Huh7 cells, WT HCV protease

Sequence of HCV NS3/4A protease (P27958 1027-1208, other chains not shown): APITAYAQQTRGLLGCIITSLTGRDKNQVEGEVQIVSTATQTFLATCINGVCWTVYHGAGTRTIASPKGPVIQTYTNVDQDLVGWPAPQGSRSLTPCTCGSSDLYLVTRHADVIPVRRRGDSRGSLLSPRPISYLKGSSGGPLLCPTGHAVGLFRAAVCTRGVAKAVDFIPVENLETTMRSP

CCC[C@H](NC(=O)[C@@H]1[C@H]2CCC[C@H]2CN1C(=O)[C@@H](NC(=O)[C@@H](NC(=O)c1cnccn1)C1CCCCC1)C(C)(C)C)C(=O)C(=O)NC1CC1 [VX-950]
predicted average liver concentration as multiple of the replicon assay IC50 [1]: up to 113 fold | predicted average liver concentration as multiple of the replicon assay IC90 [1]: up to 57 fold | Maximum change from baseline in HCV RNA (log10 IU/mL), subjects in category (HCV genotype 1; category >−1 to <0, 450 mg q8 h (n = 10)): 0 n | Maximum change from baseline in HCV RNA (log10 IU/mL), subjects in category (HCV genotype 1; category >−1 to <0, 750 mg q8 h (n = 8)): 0 n | Maximum change from baseline in HCV RNA (log10 IU/mL), subjects in category (HCV genotype 1; category >−1 to <0, 1250 mg q12 h (n = 10)): 0 n | Maximum change from baseline in HCV RNA (log10 IU/mL), subjects in category (HCV genotype 1; category >−2 to ≦−1, 450 mg q8 h (n = 10)): 0 n | Maximum change from baseline in HCV RNA (log10 IU/mL), subjects in category (HCV genotype 1; category >−2 to ≦−1, 750 mg q8 h (n = 8)): 0 n | Maximum change from baseline in HCV RNA (log10 IU/mL), subjects in category (HCV genotype 1; category >−2 to ≦−1, 1250 mg q12 h (n = 10)): 0 n | Maximum change from baseline in HCV RNA (log10 IU/mL), subjects in category (HCV genotype 1; category >−3 to ≦−2, 450 mg q8 h (n = 10)): 1 n | Maximum change from baseline in HCV RNA (log10 IU/mL), subjects in category (HCV genotype 1; category >−3 to ≦−2, 750 mg q8 h (n = 8)): 0 n | Maximum change from baseline in HCV RNA (log10 IU/mL), subjects in category (HCV genotype 1; category >−3 to ≦−2, 1250 mg q12 h (n = 10)): 1 n | Maximum change from baseline in HCV RNA (log10 IU/mL), subjects in category (HCV genotype 1; category >−4 to ≦−3, 450 mg q8 h (n = 10)): 7 n | Maximum change from baseline in HCV RNA (log10 IU/mL), subjects in category (HCV genotype 1; category >−4 to ≦−3, 750 mg q8 h (n = 8)): 3 n | Maximum change from baseline in HCV RNA (log10 IU/mL), subjects in category (HCV genotype 1; category >−4 to ≦−3, 1250 mg q12 h (n = 10)): 9 n | Maximum change from baseline in HCV RNA (log10 IU/mL), subjects in category (HCV genotype 1; category >−5 to ≦−4, 450 mg q8 h (n = 10)): 0 n | Maximum change from baseline in HCV RNA (log10 IU/mL), subjects in category (HCV genotype 1; category >−5 to ≦−4, 750 mg q8 h (n = 8)): 3 n | Maximum change from baseline in HCV RNA (log10 IU/mL), subjects in category (HCV genotype 1; category >−5 to ≦−4, 1250 mg q12 h (n = 10)): 0 n | Maximum change from baseline in HCV RNA (log10 IU/mL), subjects in category (HCV genotype 1; category ≧−5, 450 mg q8 h (n = 10)): 2 n | Maximum change from baseline in HCV RNA (log10 IU/mL), subjects in category (HCV genotype 1; category ≧−5, 750 mg q8 h (n = 8)): 2 n | Maximum change from baseline in HCV RNA (log10 IU/mL), subjects in category (HCV genotype 1; category ≧−5, 1250 mg q12 h (n = 10)): 0 n | drop in viral load, every patient (HCV genotype 1; during administration, all dose groups): > 2 log10 | subjects with a 3 log10 reduction in HCV-RNA (HCV genotype 1; within the first three days, of the 28 subjects receiving VX-950): 26 | effect on AST levels [2]: decreased | effect on in vitro cleavage of TRIF (HCV NS3/4A protease): inhibits in vitro cleavage of TRIF | severe (grade 3 or grade 4) adverse events [3]: No adverse events were considered to be severe | effect on elevated ALT levels in animal model (WT-HCV protease-SEAP): ameliorates elevated ALT levels | ALT level, median [4]: 38 U/l | ALT level, range [4]: 25-125 U/l | mean neopterin (neopterin): 7.32 ± 0.48 nmol/L | effect on IFNβ dependent gene expression (IFN-β promoter activity): restores IFNβ dependent gene expression
